# Source: article PMC8745178, “Methyl 2-Halo-4-Substituted-5-Sulfamoyl-Benzoates as High Affinity and Selective Inhibitors of Carbonic Anhydrase IX” (International Journal of Molecular Sciences, 2021)
# Tests used:
# CAVB = CAVB (Homo sapiens, UniProt Q9Y2D0); experiment: fluorescent thermal shift assay (FTSA), CAVB; type: binding; conditions: 37 °C; for ΔGintr CAVB: converted from Kd_intr, independent of pH; for ΔGobs CAVB: converted from Kd_obs, pH 7.0, FTSA
# CAXIII = CAXIII (Homo sapiens, UniProt Q8N1Q1); experiment: fluorescent thermal shift assay (FTSA), CAXIII; type: binding; conditions: 37 °C; for ΔGobs CAXIII: converted from Kd_obs, pH 7.0, FTSA; for ΔGintr CAXIII: converted from Kd_intr, independent of pH
# CAXIII, sequence (Q8N1Q1 whole entry): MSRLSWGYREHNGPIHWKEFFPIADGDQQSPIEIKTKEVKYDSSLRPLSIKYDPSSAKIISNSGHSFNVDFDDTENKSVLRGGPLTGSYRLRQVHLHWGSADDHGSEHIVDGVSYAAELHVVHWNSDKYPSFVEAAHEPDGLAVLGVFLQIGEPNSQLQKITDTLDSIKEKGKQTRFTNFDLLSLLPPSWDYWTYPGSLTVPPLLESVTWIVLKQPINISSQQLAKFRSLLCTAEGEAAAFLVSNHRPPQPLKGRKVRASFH
# CAVA = CAVA (Homo sapiens, UniProt P35218); experiment: fluorescent thermal shift assay (FTSA), CAVA; type: binding; conditions: 37 °C; for ΔGintr CAVA: converted from Kd_intr, independent of pH; for ΔGobs CAVA: converted from Kd_obs, pH 7.0, FTSA
# CAVA, sequence (P35218 39-305): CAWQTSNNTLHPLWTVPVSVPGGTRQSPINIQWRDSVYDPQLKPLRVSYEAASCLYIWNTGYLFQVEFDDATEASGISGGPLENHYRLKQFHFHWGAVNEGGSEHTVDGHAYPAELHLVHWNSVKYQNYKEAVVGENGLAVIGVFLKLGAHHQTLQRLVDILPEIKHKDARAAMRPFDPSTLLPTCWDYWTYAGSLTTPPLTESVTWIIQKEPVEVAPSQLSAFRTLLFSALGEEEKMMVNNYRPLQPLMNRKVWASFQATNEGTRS
# CAVII = CAVII (Homo sapiens, UniProt P43166); experiment: fluorescent thermal shift assay (FTSA), CAVII; type: binding; conditions: 37 °C; for ΔGintr CAVII: converted from Kd_intr, independent of pH; for ΔGobs CAVII: converted from Kd_obs, pH 7.0, FTSA
# CAVII, sequence (P43166 whole entry): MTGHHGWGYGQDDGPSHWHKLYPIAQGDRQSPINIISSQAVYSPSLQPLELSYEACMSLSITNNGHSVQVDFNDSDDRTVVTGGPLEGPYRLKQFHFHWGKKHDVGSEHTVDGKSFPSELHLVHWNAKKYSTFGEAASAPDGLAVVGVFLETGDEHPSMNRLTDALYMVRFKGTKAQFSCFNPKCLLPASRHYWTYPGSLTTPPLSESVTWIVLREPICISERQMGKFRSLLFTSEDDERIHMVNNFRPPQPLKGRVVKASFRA
# CAXII = CAXII (Homo sapiens, UniProt O43570); experiment: fluorescent thermal shift assay (FTSA), CAXII; type: binding; conditions: 37 °C; for ΔGintr CAXII: converted from Kd_intr, independent of pH; for ΔGobs CAXII: converted from Kd_obs, pH 7.0, FTSA
# CAXII, sequence (O43570 25-354): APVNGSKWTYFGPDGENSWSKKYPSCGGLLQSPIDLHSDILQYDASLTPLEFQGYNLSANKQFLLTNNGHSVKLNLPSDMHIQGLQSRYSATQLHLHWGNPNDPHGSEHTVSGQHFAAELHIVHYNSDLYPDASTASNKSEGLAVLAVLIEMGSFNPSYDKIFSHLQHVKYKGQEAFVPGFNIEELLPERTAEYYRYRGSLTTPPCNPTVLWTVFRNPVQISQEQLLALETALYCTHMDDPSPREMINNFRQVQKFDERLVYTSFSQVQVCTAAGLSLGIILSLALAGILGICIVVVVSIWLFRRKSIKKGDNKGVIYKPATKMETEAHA
# CAI = CAI (Homo sapiens, UniProt P00915); experiment: fluorescent thermal shift assay (FTSA), CAI; type: binding; conditions: 37 °C; for ΔGintr CAI: converted from Kd_intr, independent of pH; for ΔGobs CAI: converted from Kd_obs, pH 7.0, FTSA
# CAI, sequence (P00915 whole entry): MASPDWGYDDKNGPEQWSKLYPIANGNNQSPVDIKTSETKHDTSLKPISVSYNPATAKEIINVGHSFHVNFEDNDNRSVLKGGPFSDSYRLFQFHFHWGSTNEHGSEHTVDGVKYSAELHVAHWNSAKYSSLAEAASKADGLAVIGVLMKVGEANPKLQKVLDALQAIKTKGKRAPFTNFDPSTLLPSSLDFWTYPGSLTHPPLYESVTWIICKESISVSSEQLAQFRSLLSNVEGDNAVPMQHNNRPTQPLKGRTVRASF
# CAIV = CAIV (Homo sapiens, UniProt P22748); experiment: fluorescent thermal shift assay (FTSA), CAIV; type: binding; conditions: 37 °C; for ΔGintr CAIV: converted from Kd_intr, independent of pH; for ΔGobs CAIV: converted from Kd_obs, pH 7.0, FTSA
# CAIV, sequence (P22748 19-312): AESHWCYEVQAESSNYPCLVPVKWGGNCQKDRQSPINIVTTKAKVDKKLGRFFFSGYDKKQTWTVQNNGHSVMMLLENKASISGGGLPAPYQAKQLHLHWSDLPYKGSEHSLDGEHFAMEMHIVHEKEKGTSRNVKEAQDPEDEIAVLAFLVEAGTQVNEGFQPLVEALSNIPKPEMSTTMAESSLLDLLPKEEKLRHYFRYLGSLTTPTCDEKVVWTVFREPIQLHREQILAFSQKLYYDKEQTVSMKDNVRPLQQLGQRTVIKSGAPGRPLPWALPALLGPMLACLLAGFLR
# CAXIV = CAXIV (Homo sapiens, UniProt Q9ULX7); experiment: fluorescent thermal shift assay (FTSA), CAXIV; type: binding; conditions: 37 °C; for ΔGintr CAXIV: converted from Kd_intr, independent of pH; for ΔGobs CAXIV: converted from Kd_obs, pH 7.0, FTSA
# CAXIV, sequence (Q9ULX7 16-337): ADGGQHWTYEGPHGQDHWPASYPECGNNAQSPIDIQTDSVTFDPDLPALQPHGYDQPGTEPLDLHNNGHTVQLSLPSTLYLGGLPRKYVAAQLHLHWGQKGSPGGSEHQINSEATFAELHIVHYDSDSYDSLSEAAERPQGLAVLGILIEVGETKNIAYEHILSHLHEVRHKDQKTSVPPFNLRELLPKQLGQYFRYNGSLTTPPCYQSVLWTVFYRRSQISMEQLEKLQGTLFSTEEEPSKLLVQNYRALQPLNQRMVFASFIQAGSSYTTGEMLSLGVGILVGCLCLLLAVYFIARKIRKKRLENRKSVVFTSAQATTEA
# [1] = solubility observed visually and in absorption spectra; type: physicochemical; parameters: key: low solubility, LS
# CAVI = CAVI (Homo sapiens, UniProt P23280); experiment: fluorescent thermal shift assay (FTSA), CAVI; type: binding; conditions: 37 °C; for ΔGintr CAVI: converted from Kd_intr, independent of pH; for ΔGobs CAVI: converted from Kd_obs, pH 7.0, FTSA
# CAVI, sequence (P23280 18-308): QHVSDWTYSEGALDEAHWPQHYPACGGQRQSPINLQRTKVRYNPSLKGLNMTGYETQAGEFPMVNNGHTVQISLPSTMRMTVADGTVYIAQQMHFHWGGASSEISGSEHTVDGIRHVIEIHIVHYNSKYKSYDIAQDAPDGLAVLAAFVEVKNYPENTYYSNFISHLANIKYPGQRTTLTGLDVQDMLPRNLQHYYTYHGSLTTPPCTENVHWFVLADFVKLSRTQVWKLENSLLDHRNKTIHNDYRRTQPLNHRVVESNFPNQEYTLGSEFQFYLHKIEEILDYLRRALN
# CAIX = CAIX (Homo sapiens, UniProt Q16790); experiment: fluorescent thermal shift assay (FTSA), CAIX; type: binding; conditions: for ΔGobs CAIX: pH 7
# [2] = determination of pKa of the sulfonamide group by UV-VIS spectra at various pH; type: physicochemical; conditions: at pH 7.0, calculated from pKa
# CAII = CAII (Homo sapiens, UniProt P00918); experiment: fluorescent thermal shift assay (FTSA), CAII; type: binding; conditions: 37 °C; for ΔGintr CAII: converted from Kd_intr, independent of pH; for ΔGobs CAII: converted from Kd_obs, pH 7.0, FTSA
# CAIII = CAIII (Homo sapiens, UniProt P07451); experiment: fluorescent thermal shift assay (FTSA), CAIII; type: binding; conditions: 37 °C; for ΔGintr CAIII: converted from Kd_intr, independent of pH; for ΔGobs CAIII: converted from Kd_obs, pH 7.0, FTSA
# CAIII, sequence (P07451 whole entry): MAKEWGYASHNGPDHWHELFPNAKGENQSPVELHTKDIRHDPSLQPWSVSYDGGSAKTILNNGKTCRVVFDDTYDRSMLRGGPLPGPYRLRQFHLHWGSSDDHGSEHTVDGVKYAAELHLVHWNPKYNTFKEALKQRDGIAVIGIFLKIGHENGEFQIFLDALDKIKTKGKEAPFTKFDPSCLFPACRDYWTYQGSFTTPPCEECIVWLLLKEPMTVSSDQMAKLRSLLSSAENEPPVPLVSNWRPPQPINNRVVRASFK
# CAVB, sequence (Q9Y2D0 34-317): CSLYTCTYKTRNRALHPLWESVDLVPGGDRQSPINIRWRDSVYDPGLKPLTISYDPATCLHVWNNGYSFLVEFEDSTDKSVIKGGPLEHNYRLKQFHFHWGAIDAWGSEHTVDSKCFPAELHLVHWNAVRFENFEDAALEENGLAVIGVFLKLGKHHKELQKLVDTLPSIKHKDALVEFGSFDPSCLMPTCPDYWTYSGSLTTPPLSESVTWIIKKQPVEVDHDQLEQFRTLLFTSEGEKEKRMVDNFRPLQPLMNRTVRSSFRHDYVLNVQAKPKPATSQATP
SMILES,ΔGintr CAVB (CAVB) [kcal/mol],ΔGobs CAVB (CAVB) [kcal/mol],ΔGobs CAXIII (CAXIII) [kcal/mol],ΔGintr CAVA (CAVA) [kcal/mol],ΔGobs CAVA (CAVA) [kcal/mol],ΔGintr CAVII (CAVII) [kcal/mol],ΔGobs CAVII (CAVII) [kcal/mol],ΔGintr CAXII (CAXII) [kcal/mol],ΔGobs CAXII (CAXII) [kcal/mol],ΔGintr CAI (CAI) [kcal/mol],ΔGobs CAI (CAI) [kcal/mol],ΔGintr CAXIV (CAXIV) [kcal/mol],ΔGobs CAXIV (CAXIV) [kcal/mol],solubility [1],ΔGobs CAVI (CAVI) [kcal/mol],ΔGintr CAIX (CAIX) [kcal/mol],ΔGobs CAIX (CAIX) [kcal/mol],"f RSO2NH-, fraction of deprotonated sulfonamide [2] [%]",ΔGintr CAII (CAII) [kcal/mol],ΔGobs CAII (CAII) [kcal/mol],also measured
"COC(=O)c1cc(S(N)(=O)=O)c(Cl)cc1Sc1ccccc1 [Compound 5a, Methyl 4-chloro-2-(phenylsulfanyl)-5-sulfamoylbenzoate]",-13.2,-9.37,-10.9,≥ -8.91,≥ -5.26,-14.4,-10.3,-15.7,-11.7,-11.2,-7.77,-14.9,-10.9,LS,-9.51,-16.4,-12.2,0.4,-14.5,-10.6,ΔGintr CAIV (CAIV): -15.3 kcal/mol; ΔGobs CAIV (CAIV): -11.1 kcal/mol; ΔGintr CAVI (CAVI): -14.4 kcal/mol
"COC(=O)c1cc(S(N)(=O)=O)c(Cl)cc1SCc1ccccc1 [Compound 5c, Methyl 2-benzylsulfanyl-4-chloro-5-sulfamoylbenzoate]",-12.8,-8.99,-9.94,–,–,-13.8,-9.8,-13.1,-9.08,-11.5,-8.08,-14.4,-10.4,LS,-9.3,-15.3,-11.1,0.4,-14.5,-10.6,ΔGintr CAXIII (CAXIII): -13.4 kcal/mol; ΔGintr CAIII (CAIII): ≥ -9.54 kcal/mol; ΔGobs CAIII (CAIII): ≥ -5.26 kcal/mol
"COC(=O)c1cc(S(N)(=O)=O)c(Br)cc1Sc1ccccc1 [Compound 6a, Methyl 4-bromo-2-(phenylsulfanyl)-5-sulfamoylbenzoate]",-14.5,-10.7,-11.1,-9.44,-5.76,-13.5,-9.46,-14.9,-10.9,-11.4,-7.96,-15.2,-11.2,LS,-9.06,-15.5,-11.4,0.4,-14,-10.1,ΔGintr CAXIII (CAXIII): -14.5 kcal/mol; ΔGintr CAIV (CAIV): -14.7 kcal/mol; ΔGobs CAIV (CAIV): -10.5 kcal/mol; ΔGintr CAVI (CAVI): -13.9 kcal/mol; ΔGintr CAIII (CAIII): ≥ -9.54 kcal/mol; ΔGobs CAIII (CAIII): ≥ -5.26 kcal/mol
